{"source": "patent US7718160B2", "about": "“Radiolabeled compounds and liposomes and their method of making and using same” (The Board of Regents of the University of Texas System, priority 2002, dated 2010)", "type_in_all_cases": "in vivo", "key": {"[1]": {"test": "Normal rat biodistribution of ^99mTc-liposomes at 20 hours after intravenous injection", "procedure": "For comparison, biodistributions of the ^99mTc-“SNS/S” complexes used for liposome labeling were also performed."}, "[2]": {"test": "Gamma camera images of normal rats after intravenous injection (^99mTc)", "conditions": "rat, baseline, 1 hour, 4 hours and 20 hours after intravenous injection", "description": "(H: Heart; S: Spleen; L: Liver; Bo: Bowel; B1: Bladder.)\n(H: Heart; S: Spleen; L: Liver; Bo: Bowel.)\nFrom the images, significant differences between ^99mTc-liposome labeled with ^99mTc-“BMEDA” and ^99mTc-“BMEDA” alone were observed. […] From the images, significant differences between ^99mTc-liposome labeled with ^99mTc-“BMEDA+BT” and ^99mTc-“BMEDA+BT” alone were observed."}, "[3]": {"test": "Gamma camera images of normal rats after intravenous injection (^186Re)", "conditions": "rat, baseline, 1 hour, 4 hours, 24 hours and 72 hours after intravenous injection"}, "[4]": {"test": "Normal rat biodistribution of ^186Re-liposomes at 72 hours after intravenous injection"}}, "note": "“Also recorded” adds a separate entry of the source."}
{"compound": "CCN(CC)CCN(CCS)CC[S][99Tc]1(=[O])[S]CCN(CCN(CC)CC)CC[S]1", "note": "[^99mTc-“BMEDA” alone]", "values": [{"measurement": "distribution behavior", "setting": "[1]", "value": "does not"}, {"measurement": "distribution seen in gamma camera images", "setting": "[2]", "value": "fast blood clearance, fast excretion into bowel and urine, and no spleen accumulation"}]}
{"compound": "CCN(CC)CCN(CCS)CC[S][186Re]1(=[O])[S]CCN(CCN(CC)CC)CC[S]1", "note": "[^186Re-“BMEDA” Alone]", "values": [{"measurement": "distribution seen in gamma camera images", "setting": "[3]", "value": "significant excretion from the hepatobiliary system and no apparent spleen accumulation; also recorded: fast blood clearance, fast excretion into bowel and urine, and no spleen accumulation"}, {"measurement": "distribution seen in gamma camera images", "setting": "[3]; listed as 186Re-“BMBDA” alone", "value": "fast blood clearance, fast excretion into bowel and urine, and no spleen accumulation"}, {"measurement": "% ID/Gram (Average ± Sd), Blood", "setting": "[4]; normal rat", "value": "0.022 ± 0.001", "unit": "% ID/Gram"}, {"measurement": "% ID/Gram (Average ± Sd), Bowel", "setting": "[4]; normal rat", "value": "0.34 ± 0.19", "unit": "% ID/Gram"}, {"measurement": "% ID/Gram (Average ± Sd), Brain", "setting": "[4]; normal rat", "value": "0.0035 ± 0.0007", "unit": "% ID/Gram"}, {"measurement": "% ID/Gram (Average ± Sd), Feces", "setting": "[4]; normal rat", "value": "4.82 ± 1.53", "unit": "% ID/Gram"}, {"measurement": "% ID/Gram (Average ± Sd), Femur", "setting": "[4]; normal rat", "value": "0.014 ± 0.000", "unit": "% ID/Gram"}, {"measurement": "% ID/Gram (Average ± Sd), Heart", "setting": "[4]; normal rat", "value": "0.069 ± 0.007", "unit": "% ID/Gram"}, {"measurement": "% ID/Gram (Average ± Sd), Kidney", "setting": "[4]; normal rat", "value": "4.49 ± 0.37", "unit": "% ID/Gram"}, {"measurement": "% ID/Gram (Average ± Sd), Liver", "setting": "[4]; normal rat", "value": "0.54 ± 0.05", "unit": "% ID/Gram"}, {"measurement": "% ID/Gram (Average ± Sd), Lung", "setting": "[4]; normal rat", "value": "0.23 ± 0.03", "unit": "% ID/Gram"}, {"measurement": "% ID/Gram (Average ± Sd), Muscle", "setting": "[4]; normal rat", "value": "0.0048 ± 0.0005", "unit": "% ID/Gram"}, {"measurement": "% ID/Gram (Average ± Sd), Skin", "setting": "[4]; normal rat", "value": "0.029 ± 0.012", "unit": "% ID/Gram"}, {"measurement": "% ID/Gram (Average ± Sd), Spleen", "setting": "[4]; normal rat", "value": "0.38 ± 0.14", "unit": "% ID/Gram"}, {"measurement": "% ID/Gram (Average ± Sd), Testis", "setting": "[4]; normal rat", "value": "0.015 ± 0.003", "unit": "% ID/Gram"}, {"measurement": "% ID/Gram (Average ± Sd), Urine", "setting": "[4]; normal rat", "value": "0.79 ± 0.08", "unit": "% ID/Gram"}, {"measurement": "% ID/Organ (Average ± Sd), Blood", "setting": "[4]; normal rat", "value": "0.49 ± 0.04", "unit": "% ID/Organ"}, {"measurement": "% ID/Organ (Average ± Sd), Bowel", "setting": "[4]; normal rat", "value": "6.67 ± 3.31", "unit": "% ID/Organ"}, {"measurement": "% ID/Organ (Average ± Sd), Brain", "setting": "[4]; normal rat", "value": "0.0052 ± 0.0007", "unit": "% ID/Organ"}, {"measurement": "% ID/Organ (Average ± Sd), Feces", "setting": "[4]; normal rat", "value": "20.54 ± 4.35", "unit": "% ID/Organ"}, {"measurement": "% ID/Organ (Average ± Sd), Femur", "setting": "[4]; normal rat", "value": "0.58 ± 0.06", "unit": "% ID/Organ"}, {"measurement": "% ID/Organ (Average ± Sd), Heart", "setting": "[4]; normal rat", "value": "0.076 ± 0.005", "unit": "% ID/Organ"}, {"measurement": "% ID/Organ (Average ± Sd), Kidney", "setting": "[4]; normal rat", "value": "10.42 ± 0.93", "unit": "% ID/Organ"}, {"measurement": "% ID/Organ (Average ± Sd), Liver", "setting": "[4]; normal rat", "value": "5.97 ± 0.35", "unit": "% ID/Organ"}, {"measurement": "% ID/Organ (Average ± Sd), Lung", "setting": "[4]; normal rat", "value": "0.37 ± 0.06", "unit": "% ID/Organ"}, {"measurement": "% ID/Organ (Average ± Sd), Muscle", "setting": "[4]; normal rat", "value": "0.79 ± 0.07", "unit": "% ID/Organ"}, {"measurement": "% ID/Organ (Average ± Sd), Skin", "setting": "[4]; normal rat", "value": "1.48 ± 0.51", "unit": "% ID/Organ"}, {"measurement": "% ID/Organ (Average ± Sd), Spleen", "setting": "[4]; normal rat", "value": "0.21 ± 0.05", "unit": "% ID/Organ"}, {"measurement": "% ID/Organ (Average ± Sd), Testis", "setting": "[4]; normal rat", "value": "0.058 ± 0.004", "unit": "% ID/Organ"}, {"measurement": "% ID/Organ (Average ± Sd), Urine", "setting": "[4]; normal rat", "value": "26.93 ± 4.23", "unit": "% ID/Organ"}, {"measurement": "spleen accumulation", "setting": "[4]; rat", "value": "did not show the spleen accumulation behavior"}]}
